Reference: PMC6302903, “Protein and Chemical Determinants of BL-1249 Action and Selectivity for K2P Channels” (ACS Chemical Neuroscience, 2018)

Biological target: T1, K2P2.1(TREK-1)GGG (Mus musculus, UniProt P97438, D309G/I307G)
T1 construct: expressed in transfected cells; host or cells: Xenopus laevis oocytes, mRNA injected
Assay: TEVC of triple-glycine mutant uncoupling the C-terminal tail
Format: cell-based
Conditions: Xenopus oocytes
From the text: Gating stimuli detected by sensors in various parts of the channel converge on the K2P selectivity filter C-type gate.[6],[8],[10],[12],[35] Because the C-terminal tail is the sensor for K2P2.1(TREK-1) activation by both physiological[41]−[46] and chemical[45],[47] activators, we asked whether uncoupling the C-terminal tail from the channel using a triple-glycine mutant at the M4/C-terminal tail junction, K2P2.1(TREK-1)GGG,[41] impacted the BL-1249 response. […]
Xenopus laevis oocytes were harvested in accordance with UCSF IACUC protocol AN129690 and digested in calcium-free ND-96 (96 mM NaCl, 2 mM KCl, 3.8 mM MgCl2) immediately following harvest, as previously described.[6],[10] […] Defolliculated stage V–VI oocytes were injected with 0.2–6.0 ng of mRNA in 50 nL, and currents were recorded 24–48 h after injection. mRNA was synthesized from plasmid DNA using mMessage mMachine Kit (T7 promoter, Ambion, Life Technologies) and purified using RNEasy Kit (Qiagen). […] Once stabilized basal currents were recorded, compounds were perfused at various concentrations in standard ND96 and currents were allowed to increase to stabilization before recording final current. Fold activation upon compound application is expressed as I/I0 (0 mV), derived from the current at 0 mV in the presence of compound divided by the basal current at 0 mV in standard ND96 without compound. […]

T1 sequence (P97438 1-411 isoform P97438-2 I292G/D294G): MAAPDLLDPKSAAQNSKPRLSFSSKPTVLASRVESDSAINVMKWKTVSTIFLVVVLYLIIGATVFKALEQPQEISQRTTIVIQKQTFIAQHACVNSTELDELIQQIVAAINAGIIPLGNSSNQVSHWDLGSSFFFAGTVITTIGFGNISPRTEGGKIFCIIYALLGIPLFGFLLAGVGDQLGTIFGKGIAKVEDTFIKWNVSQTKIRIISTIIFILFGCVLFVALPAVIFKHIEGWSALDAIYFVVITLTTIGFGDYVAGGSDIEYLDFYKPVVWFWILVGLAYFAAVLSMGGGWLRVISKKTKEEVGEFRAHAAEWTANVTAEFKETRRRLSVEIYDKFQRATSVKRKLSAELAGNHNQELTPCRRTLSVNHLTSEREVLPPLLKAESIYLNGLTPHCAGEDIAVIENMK

EC50: 19 ± 1 µM
Structure (SMILES): c1ccc(-c2nnn[nH]2)c(Nc2cccc3c2CCCC3)c1 [BL-1249, (5,6,7,8-tetrahydro-naphthalen-1-yl)-[2-(1H-tetrazol-5-yl)-phenyl]-amine]
